Article PMC10301432, “Antiplasmodial, Trypanocidal, and Genotoxicity In Vitro Assessment of New Hybrid α,α-Difluorophenylacetamide-statin Derivatives” (Pharmaceuticals, 2023)
Read-outs that look alike come from different tables or passages of the source.

Columns and labels:
in vitro [1] = assay type: cell-based; conditions: mouse
Procedure: Cardiac cell cultures were incubated for 24 h at 37 °C with different concentrations of the compounds (up to 200 µM) diluted in DMEM (without phenol red). Their morphology and spontaneous contractibility were evaluated by light microscopy and then the cellular viability was determined by the PrestoBlue® assay. For this colorimetric bioassay, PrestoBlue® (Invitrogen, Waltham, MA, USA) was added to each well (using a 10:1 medium/dye), the plate was further incubated for 24 h followed by optical density (OD) measurement performed at 570 and 600 nm, as recommended by the manufacturer.

[2] = system: intracellular forms of T. cruzi (Tulahuen strain transfected with β-galactosidase); assay: Activity against intracellular T. cruzi in L929 cells; assay type: cell-based, Trypanosoma cruzi; conditions: 96 h; for EC50: intracellular forms, Tulahuen strain
Procedure: Tissue culture-derived trypomastigotes (Tulahuen strain expressing the E. coli β-galactosidase gene) were maintained in L929 cell lines and collected from the supernatant after 96 h of parasite infection, following previously established protocols. Briefly, after 24 h of L929 platting (4 × 10^3 cells/well), the cultures were incubated with trypomastigotes (10:1 parasite/host cell ratio) for 2 h at 37 °C. Then, the cell cultures were rinsed to remove non-internalized parasites and then further incubated for 24 h at 37 °C. Then the infected cultures were followed using two sequential protocols. […] After this period, 50 µL chlorophenol red glycoside (500 µM) in 0.5% Nonidet P40 was added to each well and the plate was incubated for more than 18 h at 37 °C, after which the absorbance was measured at 570 nm. […] Controls with untreated and Bz-treated cells are run in parallel. The results were expressed as the percent difference in the reduction between treated and untreated cells.

[3] = system: Salmonella enterica serovar Typhimurium TA100; assay: Salmonella/microsome assay, TA100
CHO-K1 cells = assay type: cell-based, Chinese Hamster
Procedure: Fresh HepG2 and CHO-K1 cells were seeded at the density of 1 × 10^5 cells/mL into 24-well plates (1 mL/per well). The compounds 13 (a–d) were then added to the medium to final concentrations of 500, 1000 and 2000 µM and incubation continued for 3 h or 24 h. DMSO 10% was used as the negative control, and, BaP (80 µM) for HepG2 and MMC (5 µM) for CHO-K1 were the positive controls. After exposure to the compounds, the cells were incubated for more than 24 h under growth conditions before quantification of the micronuclei and cytotoxicity. The cytogenetic studies were carried out in triplicate as described previously (see [51]). In order to determine the mitotic index and the number of cells with micronuclei, the medium was replaced by a cold methanol-glacial acetic acid (3:1) fixative for 30 min, and the cells then rinsed with distilled water for 2 min and air dried. The fixed cells were stained with 4,6-diamidino-2-phenylindole (DAPI) ([…]) dissolved in McIlvaine buffer (0.1 M citric acid plus 0.2 M Na2HPO4, pH 7.0) for 60 min, washed with McIlvaine buffer for 5 min, briefly rinsed with distilled water and mounted in glycerol. To determine the mitotic index and the number of cells with micronuclei, 1000 cells per well (3000 cells per concentration) were analyzed under a fluorescence microscope. The results for micronuclei were presented as the percentage of cells containing micronuclei in the 3000 cells/concentration group analyzed. Cells that glowed brightly and had homogenous nuclei were considered as having normal phenotypic morphology. Apoptotic nuclei were identified by the condensed chromatin at the periphery of the nuclear membrane or by fragmented nuclear body morphology. Necrotic cells presented chromatin forms with irregularly shaped aggregates, a pyknotic nucleus (shrunken and darkly stained) and cell membrane disruption, with cellular debris spilled into the extracellular milieu. Once again, 3000 cells were counted and the percentage of viable cells was evaluated, discounting apoptotic and necrotic cells. Statistical differences between the groups were analyzed by two-way ANOVA (p < 0.01) and Tukey’s post hoc test.

in vitro [4] = assay type: cell-based; conditions: human
Procedure: Human hepatocellular carcinoma (HepG2) and Chinese Hamster Ovary (CHO-K1) cells obtained from the American Type Culture Collection (Manassas, VA, USA) were cultured in Eagle’s medium (MEM, Gibco®, Waltham, MA, USA) containing 10% fetal bovine serum (FBS) plus 100 µg/mL streptomycin and 100 µg/mL penicillin at 37 °C in a 5% CO2 atmosphere. Logarithmic-phase cells were used in all the experiments.
Fresh HepG2 and CHO-K1 cells were seeded at a density of 1 × 10^4/well. […] Briefly, after treatment, the culture medium was replaced by 90 μL fresh culture medium and 10 μL WST-1 reagent and incubated at 37 °C and 5% CO2 for 3 h. The absorbance was then measured at 440 nm according to the kit protocol.

[5] = system: Salmonella enterica serovar Typhimurium TA102
[6] = system: Salmonella enterica serovar Typhimurium TA97; assay: Salmonella/microsome assay, TA97
Procedure: Salmonella enterica serovar Typhimurium (S. typhimurium) strains TA97, TA98, TA100, TA104 and TA102 from the authors’ stock were used as described in the mutagenicity assay.
To determine the cytotoxic effects, after 30 min pre-incubation, the assay mixtures were diluted in 0.9% NaCl (w/v) to obtain a suspension containing 2 × 10^2 cells/mL. […] The plates were then incubated at 37 °C for 24 h and the colonies counted. All the experiments were conducted in triplicate and were repeated at least twice. Statistical differences between the groups were analyzed by a two-way ANOVA (p < 0.05) and Tukey’s post hoc test.

in vitro [7] = conditions: Salmonella enterica serovar Typhimurium, pH 7.4

CC(=O)Nc1ccc(C)cc1C(F)(F)C(=O)NCC[C@@H]1C[C@H](CC(=O)OC(C)(C)C)OC(C)(C)O1 [Compound 13b, tert-Butyl 2-((4R,6R)-6-(2-(2-(2-acetamido-5-methylphenyl)-2,2-difluoroacetamido)ethyl)-2,2-dimethyl-1,3-dioxan-4-yl)acetate]
CC50 at 96 h (in vitro [1]): 114 ± 35.4 µM | EC50 ([2]; Trypanosoma cruzi, TULAHUEN, L929, 96 h): ≥ 50 µM | 10µM (% of Parasite Lysis) ([2]; fixed concentration 10 µM): 25.41 ± 10.90% | EC50 [2]: > 50 µM | revertant His+ colonies TA100 ([3]; +S9, 3 µM): 179 ± 38 | revertant His+ colonies TA100 ([3]; +S9, 15 µM): 188 ± 23 | revertant His+ colonies TA100 ([3]; +S9, 30 µM): 228 ± 46 | revertant His+ colonies TA100 ([3]; +S9, 150 µM): 260 ± 32 | revertant His+ colonies TA100 ([3]; +S9, 300 µM): 306 ± 60 | revertant His+ colonies TA100 ([3]; +S9, 1500 µM): 333 ± 45 | revertant His+ colonies TA100 ([3]; −S9, 3 µM): 145 ± 11 | revertant His+ colonies TA100 ([3]; −S9, 15 µM): 146 ± 1 | revertant His+ colonies TA100 ([3]; −S9, 30 µM): 145 ± 17 | revertant His+ colonies TA100 ([3]; −S9, 150 µM): 143 ± 40 | revertant His+ colonies TA100 ([3]; −S9, 300 µM): 144 ± 8 | revertant His+ colonies TA100 ([3]; −S9, 1500 µM): 178 ± 10 | mitotic index (CHO-K1 cells): did not affect the mitotic index | CC50 at 24 h (in vitro [4]): > 1000 µM | revertant His+ colonies TA102 ([5]; +S9, 3 µM): 365 ± 37 | revertant His+ colonies TA102 ([5]; +S9, 15 µM): 386 ± 42 | revertant His+ colonies TA102 ([5]; +S9, 30 µM): 403 ± 19 | revertant His+ colonies TA102 ([5]; +S9, 150 µM): 396 ± 31 | revertant His+ colonies TA102 ([5]; +S9, 300 µM): 372 ± 40 | revertant His+ colonies TA102 ([5]; +S9, 1500 µM): 399 ± 18 | revertant His+ colonies TA102 ([5]; −S9, 3 µM): 388 ± 20 | revertant His+ colonies TA102 ([5]; −S9, 15 µM): 393 ± 18 | revertant His+ colonies TA102 ([5]; −S9, 30 µM): 423 ± 11 | revertant His+ colonies TA102 ([5]; −S9, 150 µM): 503 ± 23 | revertant His+ colonies TA102 ([5]; −S9, 300 µM): 543 ± 39 | revertant His+ colonies TA102 ([5]; −S9, 1500 µM): 560 ± 41 | revertant His+ colonies TA97 ([6]; +S9, 3 µM): 189 ± 43 | revertant His+ colonies TA97 ([6]; +S9, 15 µM): 183 ± 43 | revertant His+ colonies TA97 ([6]; +S9, 30 µM): 216 ± 47 | revertant His+ colonies TA97 ([6]; +S9, 150 µM): 231 ± 5 | revertant His+ colonies TA97 ([6]; +S9, 300 µM): 244 ± 23 | revertant His+ colonies TA97 ([6]; +S9, 1500 µM): 288 ± 33 | revertant His+ colonies TA97 ([6]; −S9, 3 µM): 69 ± 12 | revertant His+ colonies TA97 ([6]; −S9, 15 µM): 76 ± 7 | revertant His+ colonies TA97 ([6]; −S9, 30 µM): 75 ± 12 | revertant His+ colonies TA97 ([6]; −S9, 150 µM): 74 ± 12 | revertant His+ colonies TA97 ([6]; −S9, 300 µM): 84 ± 7 | revertant His+ colonies TA97 ([6]; −S9, 1500 µM): 89 ± 27 | CC50 (in vitro [7]): > 1500 µM
